From article PMC7552967, “Anti-Melanoma Activities of Artemisone and Prenylated Amino-Artemisinins in Combination With Known Anticancer Drugs” (Frontiers in Pharmacology, 2020)

Experiments:
[1] = system: HaCat normal keratinocytes; assay: MTT cell viability assay, HaCat; assay type: cell-based, human; settings: Homo sapiens, HaCaT, 24 h, combinations 1:1, mean ± SD, read-out: HaCat IC50
From the text: The human cell lines TK10 (human kidney adenocarcinoma), UACC62 (human melanoma) and MCF7 (human breast adenocarcinoma) were obtained from the National Cancer Institute (NCI) as part of a panel widely studied for drug screening and molecular target identification. […] The nontumorigenic human immortalized keratinocyte (HaCaT) cells were a kind donation by the School of Anatomical Sciences, Faculty of Health Sciences, University of the Witwatersrand, South Africa. […] All reagents were of analytical grade and were obtained from Merck (Darmstadt, Germany) unless stated otherwise. Cells were cultured in Dulbecco’s modified essential medium (DMEM; Hyclone, GE healthcare, South Logan, UT, USA) containing 10% fetal bovine serum (FBS), 1% penicillin/streptomycin, 1% 200 mM L-Glutamine and 1% nonessential amino acids (Lonza, Basel, Switzerland) at 37°C in a humidified atmosphere of 5% CO2. Stock solutions of the compounds were prepared in dimethyl sulfoxide (DMSO). All subsequent dilutions were prepared in serum-free DMEM and vehicle controls were included in all experiments
The growth inhibitory effects of the compounds were tested in the 3-cell line panel consisting of TK10 (renal), UACC62 (melanoma) and MCF7 (breast) cancer cells by Sulforhodamine B (SRB) assay. […] Compounds prepared in DMSO were tested at 0.01–100 µM serial dilutions to establish initial inhibitory concentrations. […] After 24 h exposure to compounds, growth medium was removed, cells rinsed twice with 1 ml of phosphate buffered saline (PBS) and 100 µl fresh serum-free medium containing 5 mg/ml MTT solution was added MTT solution was prepared fresh for each analysis). Cells were then incubated for 4 h at 37°C, after which the MTT was removed and substituted with 100 µl dimethyl sulfoxide (DMSO) to dissolve the formazan crystals for an h at 37°C. After incubation, cell viability was determined using a microplate reader (BioTek®, Vermont, USA) at an excitation wavelength of 560 nm and emission wavelength of 630 nm with DMSO measured as a blank. Cell viability was expressed as a percentage relative to the untreated control, which is assumed to be 100% viable. For a positive control, cells were treated with 0.01% Triton-X 100 (Sigma-Aldrich, St Louis, MO, USA) for a period of 4 h. Using the MTT assay data, IC50 values were calculated using GraphPad Prism 8. Data were normalized to the positive (alleged to be 0% viable) and negative controls (presumed to be 100% viable), followed by the log-transformation of the concentration values. […] A crude therapeutic index (fold decrease in IC50 value) was calculated as the IC50 of the noncancerous cell-line/IC50 of the cancerous cell line. […] Drug interactions were evaluated for synergism, additivity or antagonism using multiple drug effect analysis, based on the median-principle. Cells were treated with the drug combinations for 24 h and analyzed. The CompuSyn (ComboSyn, Inc. NJ, USA) software package was used to generate the median-effect plots and combination index plots. […] All experiments were performed at least in triplicate and repeated independently.
Next, the quantitative colorimetric MTT assay was used to determine in vitro cell viability with A375 (melanoma) and HaCat (nonmalignant keratinocyte) cells. […] The IC50 was used to determine a crude therapeutic index (fold increase or decline in IC50).

A375 melanoma cells = assay: LDH release membrane integrity assay, A375; assay type: cell-based, human; settings: for LDH release, result in words: IC50 concentrations, 24 h (Table 3, Figure 6C); for A375 (% LDH release): compounds at their IC50 concentrations, 24 h, combinations 1:1, relative to maximum release; for Fold increase in LDH release: selectivity toward melanoma cell membranes, A375 vs HaCat
From the text: In order to determine cell membrane integrity, the CytoTox-ONE™ Homogeneous Membrane Integrity Assay (Promega, Madison, WO, USA) was employed. This fluorometric assay measures the release of LDH from cells with damaged cell membranes. […] The manufacturer’s instructions were followed to determine the fluorescence at an excitation wavelength of 560 nm and an emission wavelength of 590 nm. In order to calculate the percentage cytotoxicity, the average fluorescent values of the background medium were subtracted from all average fluorescent values of the experimental samples and the positive control. Cytotoxicity is expressed as a percentage relative to the positive control, which is assumed to be responsible for 100% LDH release. The fold increase in LDH release was taken as the indication of the selectivity toward melanoma cell membranes, calculated as the […]. All experiments were performed at least in triplicate and independently repeated. Statistical significant differences were calculated with one-way ANOVA.
Results are expressed relative to the untreated control and the maximum release sample, which was set as having 0% and 100% LDH release respectively. The LDH released from the nonmalignant HaCat cells and the A375 melanoma cells was then used to deduce the selectivity of the compounds against melanoma cell membranes.

Structure (SMILES) | CC50 [1] [µM] | LDH release, result in words (A375 melanoma cells) | A375 (% LDH release) (A375 melanoma cells) [%] | Fold increase in LDH release (A375 melanoma cells)
C[C@H]1[C@H](N2CCS(=O)(=O)CC2)O[C@@H]2O[C@@]3(C)CC[C@H]4[C@H](C)CC[C@@H]1[C@@]24OO3 [Artemisone 4, artemisone] | 268.8 ± 1.97 | did not significantly increase the release of LDH | 27 ± 0.81 | 1.4
CC(C)=CCC/C(C)=C/CN1CCN([C@@H]2O[C@@H]3O[C@@]4(C)CC[C@H]5[C@H](C)CC[C@@H]([C@H]2C)[C@@]35OO4)CC1 [Geranylpiperazine-DHA 6, geranylpiperazine-DHA] | 106 ± 3.99 | – | 68 ± 0.91 | 4.0
C[C@@H]1CC[C@H]2[C@@H](C)C(=O)O[C@@H]3O[C@@]4(C)CC[C@@H]1[C@]32OO4 [Artemisinin 2, artemisinin] | 381 ± 5.36 | did not significantly increase the release of LDH | 24 ± 0.96 | 1.3
CC(C)=CCC/C(C)=C/CC/C(C)=C/CN1CCN([C@@H]2O[C@@H]3O[C@@]4(C)CC[C@H]5[C@H](C)CC[C@@H]([C@H]2C)[C@@]35OO4)CC1 [Farnesylpiperazine-DHA 7, farnesylpiperazine-DHA] | 70.6 ± 1.07 | – | 57 ± 1.21 | 3.1
